Drawing on ChEMBL document CHEMBL1154932, “Structure-based drug design enables conversion of a DFG-in binding CSF-1R kinase inhibitor to a DFG-out binding mode” (Bioorg Med Chem Lett, 2010), this text covers inhibition and IC50 for six compounds.

Each structure is given as a SMILES string.

In one data set the target is hERG (KCNH2) (Homo sapiens, UniProt Q12809). Put plainly: Inhibition of CyB-tagged dofetilide binding to human ERG at 10 uM. The settings on record: probe CyB-tagged dofetilide.
For data set [1], the target named is Macrophage colony-stimulating factor 1 receptor (Homo sapiens, UniProt P07333). The experiment in a line: Inhibition of human CSF1R autophosphorylation expressed in HEK293 cells after 1 hr by ELISA. Background: ELISA stands for enzyme-linked immunosorbent assay.
Sequence of Macrophage colony-stimulating factor 1 receptor (P07333 whole entry): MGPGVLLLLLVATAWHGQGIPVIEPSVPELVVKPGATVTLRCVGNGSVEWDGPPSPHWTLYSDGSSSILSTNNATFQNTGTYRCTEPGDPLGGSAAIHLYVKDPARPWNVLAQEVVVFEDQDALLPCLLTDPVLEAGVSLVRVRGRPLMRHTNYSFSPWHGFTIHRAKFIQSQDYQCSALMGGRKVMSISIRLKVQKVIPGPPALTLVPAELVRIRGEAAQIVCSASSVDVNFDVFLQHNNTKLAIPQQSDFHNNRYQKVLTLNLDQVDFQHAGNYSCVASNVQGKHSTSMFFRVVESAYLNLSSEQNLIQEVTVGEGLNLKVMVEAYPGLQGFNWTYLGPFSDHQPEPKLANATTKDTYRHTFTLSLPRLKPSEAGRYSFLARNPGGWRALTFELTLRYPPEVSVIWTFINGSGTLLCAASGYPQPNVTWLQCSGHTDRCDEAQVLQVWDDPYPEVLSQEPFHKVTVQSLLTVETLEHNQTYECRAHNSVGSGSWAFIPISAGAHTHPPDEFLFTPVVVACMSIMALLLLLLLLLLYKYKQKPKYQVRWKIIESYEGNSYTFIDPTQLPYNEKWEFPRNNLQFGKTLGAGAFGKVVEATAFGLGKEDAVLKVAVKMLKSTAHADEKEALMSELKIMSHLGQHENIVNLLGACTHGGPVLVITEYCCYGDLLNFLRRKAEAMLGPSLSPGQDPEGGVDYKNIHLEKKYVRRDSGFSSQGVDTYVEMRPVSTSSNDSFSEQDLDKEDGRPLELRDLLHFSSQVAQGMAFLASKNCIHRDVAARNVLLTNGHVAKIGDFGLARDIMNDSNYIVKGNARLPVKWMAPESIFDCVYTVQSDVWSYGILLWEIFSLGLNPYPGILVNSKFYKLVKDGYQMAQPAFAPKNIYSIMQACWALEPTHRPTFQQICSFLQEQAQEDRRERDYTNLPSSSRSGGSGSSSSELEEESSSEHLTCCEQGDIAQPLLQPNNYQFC

Sequence of hERG (KCNH2) (Q12809 whole entry): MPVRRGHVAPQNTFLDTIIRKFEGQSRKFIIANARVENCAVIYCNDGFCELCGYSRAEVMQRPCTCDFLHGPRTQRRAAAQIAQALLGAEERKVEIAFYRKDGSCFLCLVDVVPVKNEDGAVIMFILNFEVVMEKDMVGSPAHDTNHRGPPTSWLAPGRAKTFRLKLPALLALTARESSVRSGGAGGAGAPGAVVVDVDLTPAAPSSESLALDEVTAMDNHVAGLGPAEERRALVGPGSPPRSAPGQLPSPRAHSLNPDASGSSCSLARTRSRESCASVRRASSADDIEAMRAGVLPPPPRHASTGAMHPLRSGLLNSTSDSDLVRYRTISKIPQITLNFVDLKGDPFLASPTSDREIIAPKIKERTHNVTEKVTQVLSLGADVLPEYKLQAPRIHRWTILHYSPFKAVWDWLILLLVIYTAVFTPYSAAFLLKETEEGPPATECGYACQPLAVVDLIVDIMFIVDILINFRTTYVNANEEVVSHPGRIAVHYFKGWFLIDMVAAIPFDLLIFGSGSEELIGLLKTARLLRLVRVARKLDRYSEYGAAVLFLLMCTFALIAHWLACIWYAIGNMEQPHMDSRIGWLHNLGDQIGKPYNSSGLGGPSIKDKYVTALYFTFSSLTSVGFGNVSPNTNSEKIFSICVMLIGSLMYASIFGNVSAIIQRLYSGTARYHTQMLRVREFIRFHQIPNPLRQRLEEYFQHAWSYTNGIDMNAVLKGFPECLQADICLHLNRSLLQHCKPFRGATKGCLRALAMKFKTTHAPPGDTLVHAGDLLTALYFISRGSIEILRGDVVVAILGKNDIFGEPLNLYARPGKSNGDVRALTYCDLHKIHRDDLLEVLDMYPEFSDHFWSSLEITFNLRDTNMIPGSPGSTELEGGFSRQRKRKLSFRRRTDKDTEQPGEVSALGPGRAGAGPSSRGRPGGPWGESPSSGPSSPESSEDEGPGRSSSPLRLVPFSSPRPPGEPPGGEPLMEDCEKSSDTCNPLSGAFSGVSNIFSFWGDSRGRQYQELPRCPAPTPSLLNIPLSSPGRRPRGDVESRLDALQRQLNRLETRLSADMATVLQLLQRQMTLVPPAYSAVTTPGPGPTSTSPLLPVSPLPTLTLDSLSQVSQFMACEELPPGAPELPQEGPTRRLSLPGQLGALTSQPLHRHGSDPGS

Regarding `Cn1cc(-c2cnc(N)c(OCc3c(Cl)cccc3Cl)n2)cn1`, testing at 10 µM on hERG (KCNH2) gave an inhibition of 7%. `COc1ccc(COc2ncc(Oc3nc(-c4cnn(C)c4)cnc3N)cc2OC)cc1`: the IC50 in data set [1] came out at 0.012 µM. `Cn1cc(-c2cnc(N)c(NCc3c(Cl)cccc3Cl)n2)cn1` had an inhibition at 10 µM at hERG (KCNH2) of 6%. Turning to `Cn1cc(-c2cnc(N)c(OCc3ccccc3Cl)n2)cn1`, testing at 10 µM at hERG (KCNH2) gave an inhibition of 7%. With `Nc1ncc(-c2ccc(C(=O)N3CCC[C@H]3CN3CCCC3)cc2)nc1NCc1c(Cl)cccc1Cl`, the inhibition at 10 µM on hERG (KCNH2) was 78%. Still for that read-out and setting: to `Nc1ncc(-c2ccc(C(=O)N3CCC[C@H]3CN3CCCC3)cc2)nc1OCc1c(Cl)cccc1Cl` belongs 91%.

By inhibition is commonly meant the drop in the measured response relative to a control, in per cent. A higher inhibition goes with a strong effect. A word on the IC50: it is the concentration at which inhibition is half-maximal. A lower IC50 goes with inhibition by little substance.
